Results reported in patent US12377175B2, “Trifunctional constructs with tunable pharmacokinetics useful in imaging and anti-tumor therapies” (Cornell University, priority 2016, dated 2025).

System: LNCaP xenograft tumor-bearing mice
Assay: Biodistribution studies of 177Lu-labeled ligands in LNCaP xenograft mice
Format: in vivo, mouse
Conditions: 4 h p.i.
Method: Inoculation of mice with xenografts: All animal studies were approved by the Institutional Animal Care and Use Committee of Weill Cornell Medicine and were undertaken in accordance with the guidelines set forth by the USPHS Policy on Humane Care and Use of Laboratory Animals. Animals were housed under standard conditions in approved facilities with 12 h light/dark cycles. Food and water was provided ad libitum throughout the course of the studies. Hairless male nu/nu mice were purchased from the Jackson Laboratory. For inoculation in mice, LNCaP cells were suspended at 4×10^7 cells/mL in a 1:1 mixture of PBS:Matrigel (BD Biosciences). Each mouse was injected in the left flank with 0.25 mL of the cell suspension. The mice were imaged when the tumors reached approximately 200-400 mm^3, while biodistributions were conducted when tumors were in the range 100-400 mm^3.
Biodistribution studies of 177Lu-labeled ligands in LNCaP xenograft mice: LNCaP xenograft tumor-bearing mice (5 per time point per compound) were injected intravenously with a bolus injection of 348-851 kBq (9.4-23 μCi) and 37-50 ng ([…]) of each ligand. The mice were sacrificed at 4, 24 and 96 h post injection. A blood sample was removed, and a full biodistribution study was conducted on the following organs (with contents): heart, lungs, liver, small intestine, large intestine, stomach, spleen, pancreas, kidneys, muscle, bone and tumor. Tissues were weighed and counted on a 2470 Wizard^2 Automatic Gamma Counter (Perkin Elmer). Counts were corrected for decay and for activity injected, and tissue uptake was expressed as percent injected dose per gram (% ID/g). Standard error measurement was calculated for each data point.

## O=C(O)CCC(NC(=O)NC(CCCCNC(=O)Nc1cccc(-c2cnnn2CC(=O)NC(CCCCNC(=S)Nc2ccc(CC3CN(CC(=O)O)CCN(CC(=O)O)CCN(CC(=O)O)CCN3CC(=O)O)cc2)C(=O)NC(CCCCNC(=O)Cc2ccc(I)cc2)C(=O)O)c1)C(=O)O)C(=O)O (stereo not shown) [177Lu-RPS-068, metal not drawn]
  blood activity (comparison within the series): highest blood activity
